Laboratory results as given in US9446047B2, “Substituted 2,3-dihydro-1H-inden-1-one retinoic acid-related orphan nuclear receptor antagonists for treating multiple sclerosis” (Arrien Pharmaceuticals LLC, priority 2013, dated 2016).
Where two headings read alike, the source gives them in different places.

Experiments:
[1] = test system: IL-17 release from CD4+ T cells; experiment: Cytokine IL-17 estimation by HTRF, IL-17 release from CD4+ T cells; assay type: cell-based; conditions: Homo sapiens, HTRF
RORγt = target: T1, RORγt (Homo sapiens, UniProt P51449); experiment: RORγt-activated IL-17A Prom/LUCPorter HEK 293 cells luciferase reporter assay; assay type: cell-based; conditions: IL-17A Prom/LUCPorter HEK 293 cells transfected with RORγt, 16 h; read-out: RORγt Cell Specific
T1 construct: host or cells: IL-17A Prom/LUCPorter HEK 293 cell line (IMGENEX, IML-301)
T1 sequence (P51449 1-497 isoform P51449-2): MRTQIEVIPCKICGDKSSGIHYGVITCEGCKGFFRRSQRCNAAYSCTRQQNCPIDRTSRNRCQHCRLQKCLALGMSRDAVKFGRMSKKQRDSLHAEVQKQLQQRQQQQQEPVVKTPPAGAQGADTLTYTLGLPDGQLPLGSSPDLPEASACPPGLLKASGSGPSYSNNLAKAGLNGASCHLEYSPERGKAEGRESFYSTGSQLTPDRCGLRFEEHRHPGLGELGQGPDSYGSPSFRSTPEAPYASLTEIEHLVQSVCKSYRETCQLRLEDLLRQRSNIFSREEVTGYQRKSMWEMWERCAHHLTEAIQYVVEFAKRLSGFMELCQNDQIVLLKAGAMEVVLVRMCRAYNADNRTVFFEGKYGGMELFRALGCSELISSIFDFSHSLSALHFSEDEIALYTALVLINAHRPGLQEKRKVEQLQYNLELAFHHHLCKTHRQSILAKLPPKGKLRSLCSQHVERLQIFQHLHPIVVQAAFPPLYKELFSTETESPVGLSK

[2] = Rat pharmacokinetics, intravenous bolus and oral gavage; assay type: in vivo, male Sprague Dawley rats; conditions: plasma
Experimental: The bio-availability and pharmacokinetics of some compounds of the present invention were examined in male Sprague Dawley rats. A total of 6 male rats were used in the study. The study was performed using parallel design (n=3) with serial sampling.
Dose formulations were prepared on the day of doing. Blood samples were collected at 0.083 (only IV), 0.25, 0.5, 1, 2, 4, 8 and 24 h post-dose. At each time point, approximately 0.2 mL of blood was withdrawn from each cannulated rat through jugular vein and transferred to a pre-labeled microfuge tube containing 20 μL of […] K2EDTA per mL of blood. Following collection of blood sample, equal volume of heparinized saline was flushed into jugular vein of rat. The blood samples were centrifuged at 5000 g for 5 min at 4±2° C. The plasma was separated within 30 min of scheduled time and stored below −60° C. until bio-analysis. The plasma samples were analyzed for selected test EXAMPLES using a fixed-for purpose liquid chromatographic tandem mass spectrometric detection (LC-MS/MS) method with a lower limit of quantification of 2.21 ng/mL. The pharmacokinetic parameters for select EXAMPLES were calculated using the non-compartmental analysis tool of validated WinNonlin® software (Version 5.2).
Pharmacokinetic parameters (mean±SD; n=3) of 7 following intravenous bolus and oral gavage administration of 7 solution in male Sprague Dawley rats are shown in TABLE 4 below: […]

RORγ-LBD (RORγt) = target: T2, RORγ-LBD (RORγt) (Homo sapiens, UniProt P51449); experiment: TR-FRET RORγt Binding Assay; conditions: 6-His(GST)RORγ-LBD, SRC1_2 peptide, read-out: RORγt Binding
T2 construct: the 6-His-(GST) RORγ-LBD was used which expressed and purified from baculovirus infected Sf-21 insect cells; made in house; host or cells: baculovirus-infected Sf-21 insect cells
T2 sequence (P51449 269-508 limits assumed): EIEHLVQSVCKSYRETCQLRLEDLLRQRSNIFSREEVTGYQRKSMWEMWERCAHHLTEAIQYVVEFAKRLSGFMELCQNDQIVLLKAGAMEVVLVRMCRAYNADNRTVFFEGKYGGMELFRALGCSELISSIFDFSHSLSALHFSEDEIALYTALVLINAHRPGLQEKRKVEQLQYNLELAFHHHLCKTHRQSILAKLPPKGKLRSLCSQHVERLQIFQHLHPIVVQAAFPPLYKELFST

IL-17 production = experiment: Anti-CD3e antibody induced CD4+ T cell cytokine IL-17 production in male BALB/c mice (serum ELISA); assay type: in vivo, mouse; conditions: Dexamethasone treatment; serum at 1.5 h after anti-CD3e antibody
Experimental: Efficacy of substituted 2, 3-dihydro-1H-inden-1-one containing selected compounds on Inhibition of Anti-CD3e Antibody induced CD4^+ T cell Cytokine-IL-17 Production in Male BALB/c Mice
A quantitative analysis of mouse IL-17 sandwich ELISA was conducted from the collected serum samples (Mouse IL-17 ELISA Ready-DuoSet ELISA kit, from R&D Systems, USA). The serum samples tested were collected from mice after 1.5 h of anti-CD3e antibody challenge, before antibody challenge, the mice were treated with different doses of test compounds or Dexamethasone as mentioned above in experimental design. The capture antibody was diluted in coating buffer (1×PBS) and transferred into each well. The plate was sealed and incubated overnight at RT. The following day the wells of the plate were aspirated and washed (3 times), allowing a one minute soak time in each step. The plate was blocked using 1% BSA in PBS, sealed, and incubated in ambient conditions for not less than one hour. After the incubation period, the plate was washed as described above, and the standards and serum samples were added to the appropriate wells and incubated for two hours at RT. […] The plate was read at 450/570 nm using the Microplate Absorbance Reader (SpectraMax; M3). […] Percent inhibition of cytokine production was calculated for all groups compared to positive control.

[3] = IV 2 mg/kg, solution, male Sprague Dawley rats, mean±SD n=3
[4] = PO 10 mg/kg, solution, male Sprague Dawley rats, mean±SD n=3

IC50 ([1]; IL-17 release from CD4+ T cells, read-out: IL-17 Inhibition) | IC50 (RORγt) | bioavailability ([2]; male, Sprague Dawley, PO 10 mg/kg vs IV 2 mg/kg, AUCinf and nominal doses used, read-out: F (bioavailability)) | AUC(0-inf) [2, 3] | AUC(0-t) [2, 3] | clearance [2, 3] | half-life [2, 3] | Cmax ([2]; IV 2 mg/kg, solution, male Sprague Dawley rats, mean±SD n=3, footnote b: back extrapolated concentration at time zero) | AUC(0-inf) [2, 4] | AUC(0-t) [2, 4] | Cmax [2, 4] | Tmax ([2]; PO 10 mg/kg, solution, male Sprague Dawley rats, median (min-max)) | IC50 (RORγ-LBD (RORγt)) | IC50 ([1]; CD4+ T lymphocytes, standards, read-out: IC50 of IL-17 inhibition (assay standards)) | SMILES | reduction in IL-17 production compared to positive control group (IL-17 production)
> 1000 nM | > 10000 nM | 19% | 589 ± 63.9 ng·h/mL | 572 ± 57.4 ng·h/mL | 57 ± 5.85 mL/min/kg | 6.63 ± 4.92 h | 1940 ± 482 ng/mL | 558 ± 125 ng·h/mL | 553 ± 124 ng·h/mL | 176 ± 22.7 ng/mL | 2 h | > 1000 nM |  | COc1cc2c(cc1N1CCOCC1)CC(Cc1cccc(OC(F)(F)F)c1)C2=O (stereo not drawn) [compound 31, 6-methoxy-5-morpholino-2-(3-(trifluoromethoxy)benzyl)-2,3-dihydro-1H-inden-1-one] | 
 |  |  |  |  |  |  |  |  |  |  |  |  | 14 nM | C[C@@H]1C[C@H]2[C@@H]3CCC4=CC(=O)C=C[C@]4(C)[C@@]3(F)[C@@H](O)C[C@]2(C)[C@@]1(O)C(=O)CO [Dexamethasone, reference compound] | 94%
